According to patent publication US12492173B2, “Herbicidal substituted N-tetrazolyl aryl carboxamides” (Bayer Aktiengesellschaft, priority 2019, dated 2025):

What was measured:
Type in all cases: in vivo
Viola tricolor = test: Pre-emergence herbicidal action, VIOTR; set-up: key to Herbicidal action against VIOTR: % activity: 100 = plants have died, 0 = like control plants; details: for herbicidal activity VIOTR / herbicidal action VIOTR: dosage 320 g/ha; for herbicidal activity VIOTR: scored visually after 3 weeks vs untreated controls (100% = plants have died); for Herbicidal action against VIOTR: comparative experiment
Summary of the method: (§1)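 Application took place on the soil surface immediately after sowing into sandy loam, using aqueous WP or EC preparations with 0.2% wetting agent. Visual percent scoring followed 3 weeks later, untreated pots serving as reference.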

Veronica persica = test: Post-emergence herbicidal action, VERPE; set-up: key: % herbicidal action vs untreated; 100 = plants died, 0 = like control; details: for Herbicidal action against VERPE: comparative experiment
Summary of the method: (§2)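 Treatment: post-emergence spray, one-leaf stage. Medium: sandy loam, greenhouse. Carrier: 600–800 l/ha water, 0.2% wetting agent. Read-out: visual % activity at ~3 weeks, untreated plants as reference.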

Matricaria inodora [1] = test: Pre-emergence herbicidal action, MATIN; set-up: key to Herbicidal action against MATIN: % activity: 100 = plants have died, 0 = like control plants; details: for herbicidal activity MATIN / herbicidal action MATIN: dosage 320 g/ha; for herbicidal activity MATIN: scored visually after 3 weeks vs untreated controls (100% = plants have died); for Herbicidal action against MATIN: comparative experiment, 20 g of a.i./ha
Summary of the method: as §1

Polygonum convolvulus = test: Pre-emergence herbicidal action, POLCO; details: for herbicidal activity POLCO / herbicidal action POLCO: dosage 320 g/ha; for herbicidal activity POLCO: scored visually after 3 weeks vs untreated controls (100% = plants have died)
Summary of the method: as §1

Matricaria inodora [2] = test: Post-emergence herbicidal action, MATIN; set-up: key: % herbicidal action vs untreated; 100 = plants died, 0 = like control; details: for Herbicidal action against MATIN: comparative experiment
Summary of the method: as §2

Setaria viridis = test: Pre-emergence herbicidal action, SETVI; set-up: key to Herbicidal action against SETVI: % activity: 100 = plants have died, 0 = like control plants; details: for herbicidal activity SETVI / herbicidal action SETVI: dosage 320 g/ha; for herbicidal activity SETVI: scored visually after 3 weeks vs untreated controls (100% = plants have died); for Herbicidal action against SETVI: comparative experiment
Summary of the method: as §1

[3] = post-emergence, 20 g of a.i./ha

| Compound | herbicidal activity VIOTR (Viola tricolor) [%] | herbicidal action VERPE (Veronica persica; post-emergence, dosage 80 g/ha) [%] | herbicidal activity MATIN (Matricaria inodora [1]) [%] | herbicidal activity POLCO (Polygonum convolvulus) [%] | herbicidal action MATIN (Matricaria inodora [2]; post-emergence, dosage 80 g/ha) [%] | herbicidal activity SETVI (Setaria viridis) [%] | herbicidal action VERPE (Veronica persica; Dosage 80 g/ha) | herbicidal action MATIN (Matricaria inodora [2]; Dosage 80 g/ha) | further results |
| --- | --- | --- | --- | --- | --- | --- | --- | --- | --- |
| CC[S+]([O-])Cc1c(C(F)(F)F)ccc(C(=O)Nc2nnnn2C)c1Cl (racemic) [Example 1-300] | 100 | 100 | 100 | 100 | 100 | 100 |  |  |  |
| Cn1nnnc1NC(=O)c1ccc(C(F)(F)F)c(C[S+]([O-])C2CC2)c1Cl (racemic) [Example 1-303] | 100 | 100 | 100 | 100 | 100 | 100 |  |  |  |
| COCC[S+]([O-])Cc1c(C(F)(F)F)ccc(C(=O)Nc2nnnn2C)c1Cl (racemic) [Example 1-306] | 100 |  | 100 | 80 |  | 90 | 90 | 90 |  |
| Cn1nnnc1NC(=O)c1ccc(C(F)(F)F)c(C[S+]([O-])CC(F)(F)F)c1Cl (racemic) [Example 1-312] | 100 | 90 | 100 | 90 | 100 | 100 |  |  |  |
| Cn1nnnc1NC(=O)c1ccc(I)c(C[S+](C)[O-])c1Cl (racemic) [Example 1-363] | 100 | 100 | 100 | 90 | 100 | 100 |  |  | Herbicidal action against MATIN (Matricaria inodora [1]): 90; Herbicidal action against SETVI (Setaria viridis; 20 g of a.i./ha): 90 |
| CC[S+]([O-])Cc1c(C(F)(F)F)ccc(C(=O)Nc2nnnn2C)c1Br (racemic) [Example 1-384] | 100 | 100 | 100 | 90 | 90 | 100 |  |  | Herbicidal action against VIOTR (Viola tricolor; 80 g of a.i./ha): 100; Herbicidal action against VERPE (Veronica persica; [3]): 100; Herbicidal action against MATIN (Matricaria inodora [2]; [3]): 90; Herbicidal action against SETVI (Setaria viridis; 80 g of a.i./ha): 100 |
| CSCc1c(C(F)(F)F)ccc(C(=O)Nc2nnnn2C)c1C [Example 1-83] | 100 | 100 | 100 | 100 | 100 | 100 |  |  |  |
| Cc1c(C(=O)Nc2nnnn2C)ccc(C(F)F)c1C[S+](C)[O-] (stereo not drawn) [Example 1-108] |  |  |  |  |  |  | 100 | 100 | herbicidal action VIOTR (Viola tricolor): 100%; herbicidal action MATIN (Matricaria inodora [1]): 90%; herbicidal action POLCO (Polygonum convolvulus): 90%; herbicidal action SETVI (Setaria viridis): 100% |
| CSc1c(C(=O)Nc2nnnn2C)ccc(C(F)(F)F)c1C[S+](C)[O-] (stereo not drawn) [Example 1-162] | 100 | 100 | 100 | 100 | 100 | 100 |  |  | Herbicidal action against POLCO (Polygonum convolvulus; comparative experiment, 20 g of a.i./ha): 80 |
| CSc1c(C(=O)Nc2nnnn2C)ccc(C(F)F)c1C[S+](C)[O-] (stereo not drawn) [Example 1-171] | 100 |  | 100 | 100 |  | 100 | 100 | 90 |  |
| CCSCc1c(C(F)(F)F)ccc(C(=O)Nc2nnnn2C)c1SCC [Example 1-182] | 100 |  | 100 | 100 |  | 100 | 100 | 90 | Herbicidal action against VIOTR (Viola tricolor; 20 g of a.i./ha): 80; Herbicidal action against VERPE (Veronica persica; post-emergence, 5 g of a.i./ha): 100; Herbicidal action against MATIN (Matricaria inodora [1]): 80 |
| CCSCc1c(C(F)(F)F)ccc(C(=O)Nc2nnnn2C)c1Cl [Example 1-299] | 100 | 100 | 100 | 90 | 90 | 100 |  |  | Herbicidal action against VERPE (Veronica persica; post-emergence, 5 g of a.i./ha): 100; Herbicidal action against MATIN (Matricaria inodora [1]): 90; Herbicidal action against MATIN (Matricaria inodora [2]; post-emergence, 5 g of a.i./ha): 80; Herbicidal action against SETVI (Setaria viridis; 20 g of a.i./ha): 90 |
| Cn1nnnc1NC(=O)c1ccc(C(F)(F)F)c(CSC2CC2)c1Cl [Example 1-302] | 100 | 90 | 100 | 100 | 90 | 100 |  |  |  |
| Cn1nnnc1NC(=O)c1ccc(C(F)(F)F)c(CS(=O)(=O)C2CC2)c1Cl [Example 1-304] | 100 | 100 | 100 | 100 | 90 | 100 |  |  |  |
| Cn1nnnc1NC(=O)c1ccc(C(F)(F)F)c(CSCC2CC2)c1Cl [Example 1-314] | 100 | 100 | 100 | 100 | 100 | 100 |  |  |  |
| Cn1nnnc1NC(=O)c1ccc(C(F)(F)F)c(CS(=O)(=O)CC2CC2)c1Cl [Example 1-316] | 100 |  | 100 | 100 |  | 100 | 100 | 90 |  |
| Cn1nnnc1NC(=O)c1ccc(C(F)F)c(CS(C)(=O)=O)c1Cl [Example 1-322] | 100 | 100 | 100 | 100 | 80 | 100 |  |  |  |
| CCSCc1c(C(F)F)ccc(C(=O)Nc2nnnn2C)c1Cl [Example 1-323] | 100 | 100 | 90 | 100 | 100 | 100 |  |  |  |
| CCS(=O)(=O)Cc1c(C(F)F)ccc(C(=O)Nc2nnnn2C)c1Cl [Example 1-325] | 100 |  | 100 | 100 |  | 100 | 100 | 80 |  |
| CCn1nnnc1NC(=O)c1ccc(C(F)F)c(CSC)c1Cl [Example 2-320] | 100 |  | 100 | 90 |  | 100 | 100 |  |  |
| CCCn1nnnc1NC(=O)c1ccc(C(F)(F)F)c(C[S+](C)[O-])c1OC (stereo not drawn) [Example 3-135] |  |  |  |  |  |  |  | 100 | herbicidal action VIOTR (Viola tricolor): 100%; herbicidal action MATIN (Matricaria inodora [1]): 100%; herbicidal action POLCO (Polygonum convolvulus): 90%; herbicidal action SETVI (Setaria viridis): 100% |
